In patent US12257287B2, “Glucagon-derived peptide and use thereof” (Tianjin Institute of Pharmaceutical Research Co., Ltd., priority 2018, dated 2025):
≈ marks a conversion by molar mass, not a printed value. Numbered stars: 1 amine (or outer) side, 2 acyl side, 3 side chain; on linkers, the order of the positions; unused ones are H or OH. Square brackets hold non-standard residues; d marks the D form. Side chains are listed from the residue outwards. Peptide text beside a SMILES is read from it. * marks the point of attachment. C18 diacid = O=C(O)CCCCCCCCCCCCCCCCC(=O)*; γGlu = O=C(O)[C@H](CCC(=O)[*:2])N[*:1]; AEEA = NCCOCCOCC(=O)O; Aib = CC(C)(N)C(=O)O

Columns and labels:
[1] = Glucose tolerance test in glucose-loaded DIO mice; assay type: in vivo; conditions: DIO mice, conclusions on Tables 4 and 6
Protocol: DIO mice fasted for 16 h, and 1 h after administration by subcutaneous injection, glucose solution (1 g/kg) was given intraperitoneally for glucose tolerance test. Blood glucose values were measured at 0.5, 1 and 1.5 h after glucose administration. The area under the blood glucose concentration curve (AUC) was calculated and compared with that of the model control group, and the blood glucose inhibition rate (%) was calculated.
(§1) Methods are the same as that in Example 3, the test results of effects on body weight are shown in Table 5, and the effects on blood glucose are shown in Table 6. In the table, 5 #-9 # are compound 27, compound 35, compound 54, compound 57, and compound 66, respectively.

physchem = assay type: physicochemical
Protocol: 2 mg of the compound was weighed, dissolved in 1 ml of phosphate buffer solutions with different concentrations (10, 20 mM) and different pH values (7.5, 8.0), and centrifuged, and supernatant was taken. The peak area was measured by HPLC (chromatographic column: Aeris widepore XB-C18 3.6 mm, 4.6×150 mm; mobile phase: A: 0.05% TFA, B: 95% acetonitrile; detection wavelength: 214 nm) and compared with a corresponding sample standard solution, and the relative concentration of the test sample solution is calculated.

[2] = Accelerated chemical stability in injection solvent system (HPLC-UV); assay type: physicochemical; conditions: 14 days, phosphate buffer pH 7.3 with Tween 80 and phenol, main peak area vs day 0
Protocol: The chemical stability of the compounds of the present invention in injection solution systems was evaluated by an accelerated stability test. Methods: an appropriate amount of compound of Example 1 was weighed, and dissolved in 10 mM pH8.5 sodium hydrogen phosphate buffer. The final pH value of the solution was adjusted to 7.3 with 0.1 N hydrochloric acid, and proper amounts of Tween 80 and phenol were added. The mixture was placed at 10° C. and 37° C. for 14 days, and detected by HPLC-UV. The main peak area was obtained by peak area normalization method, and the changes compared with day 0 were investigated. The HPLC detection method was the same as that in Example 6, and the mobile phase gradient was appropriately adjusted according to the situation of chromatographic peak separation.

GC receptor = molecular target: T1, GC receptor (Homo sapiens, UniProt P47871); assay: GC receptor mediated cAMP production in vitro (HEK293 cells transfected with GC receptor); assay type: cell-based; conditions: 20 min at 37° C., read-out: GCGR (nM EC50)
T1 construct: expressed in transfected cells; host or cells: HEK293 cells
T1 sequence (P47871 26-477): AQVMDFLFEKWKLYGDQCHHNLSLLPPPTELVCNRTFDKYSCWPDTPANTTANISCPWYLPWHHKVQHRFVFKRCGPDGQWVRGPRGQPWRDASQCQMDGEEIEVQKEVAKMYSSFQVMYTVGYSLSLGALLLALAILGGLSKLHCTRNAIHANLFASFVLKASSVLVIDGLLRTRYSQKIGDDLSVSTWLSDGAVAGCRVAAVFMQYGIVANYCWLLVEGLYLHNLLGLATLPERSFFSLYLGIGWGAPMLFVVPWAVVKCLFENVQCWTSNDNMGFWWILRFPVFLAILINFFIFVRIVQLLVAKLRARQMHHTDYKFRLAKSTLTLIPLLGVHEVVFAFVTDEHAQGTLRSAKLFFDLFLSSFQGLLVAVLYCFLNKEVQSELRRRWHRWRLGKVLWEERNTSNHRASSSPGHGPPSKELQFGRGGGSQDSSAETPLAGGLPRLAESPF
From the text: The medium was removed, the cells were lysed, and cAMP values were detected referring to the detection method described for the assay kit.

[3] = Short-term administration: food intake and body weight in DIO mice; assay type: in vivo; conditions: 30 nmol/kg once every 24 h, twice, − decrease; for Rate of change in food intake (%): at 48 hours vs day before administration; for Body weight change: at 48 hours
Protocol: Method: diet-induced obese mice (DIO) with an average body weight of 52.5 g were divided into model control and test groups, 5 mice in each group. The test samples were dissolved in 10 mM PBS of pH7.4, injected once every 24 h at a dose of 30 nmol/kg, and administered twice. The model group was injected with solvent. Changes in food intake and body weight at 48 hours were measured, and the change rates were calculated compared to the day before administration.

[4] = Effect on body weight of DIO mice after 14 days' administration; assay type: in vivo, C57BL/6J mice; conditions: DIO mice, 14 days, conclusions on Tables 3 and 5
From the text: C57BL/6J mice (n=35), model group (n=30) were fed with H10060 high-fat diet to induce obesity (DIO), blank control group (n=5) were fed with standard diet, both for 34 weeks. One day before the first administration, the model group was randomly divided into groups according to their body weight (average body weight range 45.0-52.0 g), with 5 mice in each group, which respectively were model control group, positive control group (semaglutide), and test sample group (1 #-4 # are compound 1, compound 4, compound 6 and compound 22, respectively). The blank control group and model control group were given saline subcutaneously every day, while the positive control group and test sample group were administrated by subcutaneous injection every day for 14 days. The body weight of the animals was weighed and recorded every day, and the change rate of body weight (%) was calculated by comparing the body weight at the last administration day with the initial body weight. (initial body weight−last body weight)/initial body weight=body weight change rate (%). Calculation formula: […]
Calculated positive values indicate a decrease and negative values indicate an increase.
as §1

[5] = pH 7.5, Solubility, pH 7.5, 10 mM phosphate buffer
[6] = pH 7.5, Solubility, pH 7.5, 20 mM phosphate buffer
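Throughout, for Solubility: compound added at 2 mg per mL of phosphate buffer, with the dissolved amount determined in the supernatant.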

solubility (physchem; [5])	solubility (physchem; [6])	Change in purity % (10° C.) [2]	Change in purity % (37° C.) [2]	EC50 (GC receptor)	solubility (physchem; pH 8, Solubility, pH 8.0, 10 mM phosphate buffer)	solubility (physchem; pH 8, Solubility, pH 8.0, 20 mM phosphate buffer)	SMILES	glucose tolerance / blood glucose lowering (in words) [1]	Rate of change in food intake (%) [3]	Body weight change [3]	body weight reduction (in words) [4]
> 2000 µg/mL	> 2000 µg/mL	−1.8%	−4.6%	0.014 nM			CC[C@H](C)[C@H](NC(=O)[C@H](Cc1ccccc1)NC(=O)[C@H](CCC(=O)O)NC(=O)[C@H](CCCCN)NC(=O)[C@H](C)NC(=O)[C@H](C)NC(=O)[C@H](CCCNC(=N)N)NC(=O)[C@H](CCC(=O)O)NC(=O)[C@H](CCC(=O)O)NC(=O)[C@H](CC(C)C)NC(=O)[C@H](Cc1ccc(O)cc1)NC(=O)[C@H](CCCCN)NC(=O)[C@H](CO)NC(=O)[C@H](CCCCNC(=O)COCCOCCNC(=O)COCCOCCNC(=O)CC[C@H](NC(=O)CCCCCCCCCCCCCCCCC(=O)O)C(=O)O)NC(=O)[C@H](CC(=O)O)NC(=O)[C@H](CO)NC(=O)[C@@H](NC(=O)[C@H](Cc1ccccc1)NC(=O)[C@@H](NC(=O)CNC(=O)[C@H](CCC(N)=O)NC(=O)C(C)(C)NC(=O)[C@@H](N)Cc1c[nH]cn1)[C@@H](C)O)[C@@H](C)O)C(=O)N[C@@H](C)C(=O)N[C@@H](Cc1c[nH]c2ccccc12)C(=O)N[C@@H](CC(C)C)C(=O)N[C@@H](CCC(=O)O)C(=O)N[C@@H](C)C(=O)NCC(=O)NCC(=O)N1CCC[C@H]1C(=O)N[C@@H](CO)C(=O)N[C@@H](CO)C(=O)NCC(N)=O [Compound 27] (H-H[Aib]QGTFTSDK([AEEA-AEEA-γGlu-C18 diacid])SKYLEERAAKEFIAWLEAGGPSSG-NH2; N-terminus assumed)	significantly improved glucose tolerance	−55%	-1.9 g	significantly reduced body weight
1460 µg/mL (≈ 343 µM)	1310 µg/mL (≈ 308 µM)	−1.1%	−4.0%	0.081 nM	1840 µg/mL (≈ 432 µM)	1530 µg/mL (≈ 359 µM)	CCCCCCCCCCCCCCCC(=O)N[C@@H](CCC(=O)N[C@@H](CCC(=O)NCCCC[C@H](NC(=O)[C@H](C)NC(=O)[C@H](CCCNC(=N)N)NC(=O)[C@H](CCCCN)NC(=O)[C@H](CCC(=O)O)NC(=O)[C@H](CC(=O)O)NC(=O)[C@H](CC(C)C)NC(=O)[C@H](Cc1ccc(O)cc1)NC(=O)[C@H](CCCCN)NC(=O)[C@H](CO)NC(=O)[C@H](Cc1ccc(O)cc1)NC(=O)[C@H](CC(=O)O)NC(=O)[C@H](CO)NC(=O)[C@@H](NC(=O)[C@H](Cc1ccccc1)NC(=O)[C@@H](NC(=O)CNC(=O)[C@H](CCC(N)=O)NC(=O)C(C)(C)NC(=O)[C@@H](N)Cc1c[nH]cn1)[C@@H](C)O)[C@@H](C)O)C(=O)N[C@@H](CCC(=O)O)C(=O)N[C@@H](Cc1ccccc1)C(=O)N[C@H](C(=O)N[C@@H](C)C(=O)N[C@@H](Cc1c[nH]c2ccccc12)C(=O)N[C@@H](CC(C)C)C(=O)N[C@@H](CCC(=O)O)C(=O)N[C@@H](C)C(=O)NCC(=O)NCC(=O)N1CCC[C@H]1C(=O)N[C@@H](CO)C(=O)N[C@@H](CO)C(=O)NCC(N)=O)[C@@H](C)CC)C(=O)O)C(=O)O [Compound 57] (HELM PEPTIDE1{H.[Aib].Q.G.T.F.T.S.D.Y.S.K.Y.L.D.E.K.R.A.K.E.F.I.A.W.L.E.A.G.G.P.S.S.G.[am]}|PEPTIDE2{[CCCCCCCCCCCCCCCC(=O)[*:2]].[gGlu].[gGlu]}$PEPTIDE1,PEPTIDE2,20:R3-3:R2$$$V2.0; N-terminus assumed)	significantly improved glucose tolerance	−71%	-2.6 g	significantly reduced body weight
